The source of these data is patent US8471021B2, “Sulfur containing heterocycle-fused naphthalene tetracarboxylic acid diimide derivatives, preparation method and use thereof” (Shanghai Institute Of Organic Chemistry, Chinese Academy Of …, priority 2009, dated 2013).

A short description of data set [1]: UV absorption spectrum in dichloromethane. Format: physicochemical. The note with it: for optical band gap: calculated by equation (1), 1240 nm/λonset. Here is the method:
UV absorption spectrum measurement was conducted using U-3900 spectrometer. Samples were dissolved in dichloromethane to a molar concentration of 1×10^−6M, the scanning scope was 800-200 nm, and the optical band gap of the compound was calculated according to the following equation, Egap^opt=1240 nm/λonset (1)

The nature of data set [2]: Cyclic voltammetry in dichloromethane. The note with it: for LUMO energy level: calculated by equation (2), −(E1/2^red1+4.44); for half-wave potential E1/2^red1 / half-wave potential E1/2^red2: Bu4NPF6 0.1 M, 50 mV/s. In kind it is physicochemical. As to the method:
Cyclic voltammetry measurement was conducted by CHI610D electrochemical analyzer with computer control using a conventional tri-electrode system with platinum electrode as a working electrode, saturated calomel electrode (SCE) as a reference electrode, and platinum wire as a counter electrode. Samples were dissolved in freshly distilled dichloromethane to a molar concentration of 1×10^−3 M. Bu4NPF6 (0.1 M) was applied as a supporting electrolyte. The scan rate was 50 mV/s. Using saturated calomel as reference, taking the SCE energy level to be −4.44 eV below the vacuum level, the LUMO energies for the test material can be calculated by using the following equation for energy level: ELUMO=−(E1/2^red1+4.44) eV (2)

Data set [3] in a line: Solubility in common organic solvents at room temperature. In kind it is physicochemical. Conditions: for example chloroform, tetrahydrofuran. From the text:
The 21 exemplary compounds (1˜21) described above for the five classes of sulfur containing heterocycle fused naphthalenetetracarboxylic acid diimide derivatives are soluble in regular organic solvents, such as chloroform, toluene, chlorobenzene, dichlorobenzene, and the like.

Data set [4] can be described thus: Cyclic voltammetry in dichloromethane. Format: physicochemical. Conditions: calculated by equation (3), −(Ered^onset+4.4).

For orientation: melting point means the temperature, or range, at which the solid turns liquid. `CCCCCCCCCCCCC(CCCCCCCCCC)Cn1c(=O)c2c3sc(=C(C#N)C#N)sc3c3c(=O)n(CC(CCCCCCCCCC)CCCCCCCCCCCC)c(=O)c4c5sc(=C(C#N)C#N)sc5c(c1=O)c2c34` (stereo not shown) [Compound 1, N,N′-di(2-decyltetradecyl)-[2,3-d:6,7-d′]-bi[2-(1,3-dithiacyclopenten-2-ylidene)-2-malononitrile]-naphthalene-1,4,5,8-tetracarboxylic acid diimide] gave a melting point of 240 °C. In addition, the optical band gap in data set [1] was 2.1 eV. Moreover, the “maximum UV absorption peak” value in data set [1] (dichloromethane, 1×10^−6M) is “around 573 nm”. For the same compound, the LUMO energy level in data set [2] was −4.35 eV. Moreover, in data set [2] (vs SCE, dichloromethane), the “half-wave potential E1/2^red1” value is −0.09 V and the “half-wave potential E1/2^red2” value was −0.63 V.

In the case of `CCCCCCCCCCC(CCCCCCCC)Cn1c(=O)c2c3sc(=C(C#N)C#N)sc3c3c(=O)n(CC(CCCCCCCC)CCCCCCCCCC)c(=O)c4c5sc(=C(C#N)C#N)sc5c(c1=O)c2c34` (stereo not shown) [Compound 2, N,N′-di(2-octyldodecyl)-[2,3-d:6,7-d′]-bi[2-(1,3-dithiacyclopenten-2-ylidene)-2-malononitrile]-naphthalene-1,4,5,8-tetracarboxylic acid diimide], the melting point was 265 °C.

On to `CCCCCCCCC(CCCCCC)Cn1c(=O)c2c3sc(=C(C#N)C#N)sc3c3c(=O)n(CC(CCCCCC)CCCCCCCC)c(=O)c4c5sc(=C(C#N)C#N)sc5c(c1=O)c2c34` (stereo not shown) [Compound 3, N,N′-di(2-hexyldecyl)-[2,3-d:6,7-d′]-bi[2-(1,3-dithiacyclopenten-2-ylidene)-2-malononitrile]-naphthalene-1,4,5,8-tetracarboxylic acid diimide], for which the melting point was in the range of 317 to 319 °C.

In turn, `CCCCCCC(CCCCCC)Cn1c(=O)c2c3sc(=C(C#N)C#N)sc3c3c(=O)n(CC(CCCCCC)CCCCCC)c(=O)c4c5sc(=C(C#N)C#N)sc5c(c1=O)c2c34` [Compound 4, N,N′-di(2-hexyloctyl)-[2,3-d:6,7-d′]-bi[2-(1,3-dithiacyclopenten-2-ylidene)-2-malononitrile]-naphthalene-1,4,5,8-tetracarboxylic acid diimide] returned a melting point of 349 to 351 °C.

With `CCCCCCC(CCCC)Cn1c(=O)c2c3sc(=C(C#N)C#N)sc3c3c(=O)n(CC(CCCC)CCCCCC)c(=O)c4c5sc(=C(C#N)C#N)sc5c(c1=O)c2c34` (stereo not shown) [Compound 5, N,N′-di(2-butyloctyl)-[2,3-d:6,7-d′]-bi[2-(1,3-dithiacyclopenten-2-ylidene)-2-malononitrile]-naphthalene-1,4,5,8-tetracarboxylic acid diimide], the melting point was in the range of 369 to 371 °C.

Consider `CCCCC(CC)Cn1c(=O)c2c3sc(=C(C#N)C#N)sc3c3c(=O)n(CC(CC)CCCC)c(=O)c4c5sc(=C(C#N)C#N)sc5c(c1=O)c2c34` (stereo not shown) [Compound 6, N,N′-di(2-ethylhexyl)-[2,3-d:6,7-d′]-bi[2-(1,3-dithiacyclopenten-2-ylidene)-2-malononitrile]-naphthalene-1,4,5,8-tetracarboxylic acid diimide], for which the solubility entry in data set [3] is recorded as “relatively low solubility”.

Take `CCCCCCCCC(CCCCCC)CCn1c(=O)c2c3sc(=C(C#N)C#N)sc3c3c(=O)n(CCC(CCCCCC)CCCCCCCC)c(=O)c4c5sc(=C(C#N)C#N)sc5c(c1=O)c2c34` (stereo not shown) [Compound 7, N,N′-di(3-hexylundecyl)-[2,3-d:6,7-d′]-bi[2-(1,3-dithiacyclopenten-2-ylidene)-2-malononitrile]-naphthalene-1,4,5,8-tetracarboxylic acid diimide]: the melting point fell in the range of 330 to 332 °C.

On to `CCCCCCCCn1c(=O)c2c3sc(=C(C#N)C#N)sc3c3c(=O)n(CCCCCCCC)c(=O)c4c5sc(=C(C#N)C#N)sc5c(c1=O)c2c34` [Compound 8, N,N′-di(n-octyl)-[2,3-d:6,7-d′]-bi[2-(1,3-dithiacyclopenten-2-ylidene)-2-malononitrile]-naphthalene-1,4,5,8-tetracarboxylic acid diimide], for which the solubility result in data set [3] was “relatively low solubility”.

Turning to `CCCCCCCCCCC(CCCCCCCC)Cn1c(=O)c2c3sc(=C(C#N)C(=O)OCC)sc3c3c(=O)n(CC(CCCCCCCC)CCCCCCCCCC)c(=O)c4c5sc(=C(C#N)C(=O)OCC)sc5c(c1=O)c2c34` (stereo not shown) [Compound 9, N,N′-di(2-octyldodecyl)-[2,3-d:6,7-d′]-bi[ethyl 2-(1,3-dithiacyclopenten-2-ylidene)-2-cyanoacetate]-naphthalene-1,4,5,8-tetracarboxylic acid diimide], in data set [1], the optical band gap is reported as 2.0 eV. Moreover, in data set [1] (dichloromethane, 1×10^−6M), the “maximum UV absorption peak” value was “around 581 nm”. Moreover, the LUMO energy level in data set [2] is given as −4.23 eV. Also, in data set [2] (vs SCE, dichloromethane), the “half-wave potential E1/2^red1” value is on record as −0.21 V and the “half-wave potential E1/2^red2” value was −0.68 V.

`CCCCCCCCCCCCC(CCCCCCCCCC)Cn1c(=O)c2c3sc(=C(C#N)c4ccccc4)sc3c3c(=O)n(CC(CCCCCCCCCC)CCCCCCCCCCCC)c(=O)c4c5sc(=C(C#N)c6ccccc6)sc5c(c1=O)c2c34` (stereo not shown) [Compound 12, N,N′-di(2-decyltetradecyl)-[2,3-d:6,7-d′]-bi[2-(1,3-dithiacyclopenten-2-ylidene)-2-phenylacetonitrile]-naphthalene-1,4,5,8-tetracarboxylic acid diimide]: in data set [1], the optical band gap was 1.8 eV. Also, the “maximum UV absorption peak” value in data set [1] (dichloromethane, 1×10^−6M) is listed as “around 655 nm”. For the same compound, in data set [2] (vs SCE, dichloromethane), the “onset reduction potential Ered^onset” value is recorded as −0.23 V and the half-wave potential E1/2^red1 was -0.81 V. Moreover, the LUMO energy level in data set [4] was −4.17 eV.

`CCCCCCCCCCC(CCCCCCCC)Cn1c(=O)c2c3sc(C#N)c(C#N)sc3c3c(=O)n(CC(CCCCCCCC)CCCCCCCCCC)c(=O)c4c5sc(C#N)c(C#N)sc5c(c1=O)c2c34` (stereo not shown) [Compound 15, N,N′-di(2-octyl-dodecyl)-[2,3-d:6,7-d′]-bi[1,4-dithiacyclohexadiene-2,3-dicarbonitrile]-naphthalene-1,4,5,8-tetracarboxylic acid diimide]: the optical band gap in data set [1] is on record as 2.0 eV. Besides, the “maximum UV absorption peak” value in data set [1] (dichloromethane, 1×10^−6M) is listed as “around 550 nm”. The LUMO energy level in data set [2] is reported as −4.28 eV. Also, in data set [2] (vs SCE, dichloromethane), the “half-wave potential E1/2^red1” value was −0.16 V and the “half-wave potential E1/2^red2” value is reported as −0.64 V.

Take `CCCCCCCCCCCCC(CCCCCCCCCC)CN1C(=O)c2c3sc(C#N)c(C#N)c3c3c4c(c5sc(C#N)c(C#N)c5c(c24)C1=O)C(=O)N(CC(CCCCCCCCCC)CCCCCCCCCCCC)C3=O` (stereo not drawn) [Compound 18, N,N′-di(2-decyl-tetradecyl)-[2,3-d:6,7-d′]-bi[α,β-dicyanothiophene]-naphthalene-1,4,5,8-tetracarboxylic acid diimide]: the optical band gap in data set [1] was 2.2 eV. In addition, in data set [1] (dichloromethane, 1×10^−6M), the end absorption peak was 545 nm and the “maximum UV absorption peak” value was 250˜318 nm. Also, the LUMO energy level in data set [2] was −4.63 eV. Further, in data set [2] (vs SCE, dichloromethane), the “half-wave potential E1/2^red1” value is reported as 0.19 V and the “half-wave potential E1/2^red2” value is on record as −0.40 V.
